Test results published in patent US10758534B2 (Vertex Pharmaceuticals Incorporated, priority 2014, dated 2020).

Target: T1, F508del (Homo sapiens, UniProt P13569, DEL508-508)
T1 construct: expressed in transfected cells
Experiment: Protocol 1: membrane potential optical assay (FLIPR III, voltage sensing dye), identification of potentiator compounds
Type: cell-based
Conditions: Table 3, compounds of Table 1
Procedure, shortened: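 Mouse NIH 3T3 fibroblasts stably expressing F508del, temperature-corrected at 27 °C for 24 h, pretreated with compound, then loaded with voltage-sensing redistribution dye. Forskolin was added in a single step with a chloride gradient (chloride-free gluconate bath; Bath Solution #1 HEPES pH 7.4). Membrane-potential fluorescence read on FLIPR III.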

T1 sequence (P13569 with tags, fused parts or gaps DEL508-508): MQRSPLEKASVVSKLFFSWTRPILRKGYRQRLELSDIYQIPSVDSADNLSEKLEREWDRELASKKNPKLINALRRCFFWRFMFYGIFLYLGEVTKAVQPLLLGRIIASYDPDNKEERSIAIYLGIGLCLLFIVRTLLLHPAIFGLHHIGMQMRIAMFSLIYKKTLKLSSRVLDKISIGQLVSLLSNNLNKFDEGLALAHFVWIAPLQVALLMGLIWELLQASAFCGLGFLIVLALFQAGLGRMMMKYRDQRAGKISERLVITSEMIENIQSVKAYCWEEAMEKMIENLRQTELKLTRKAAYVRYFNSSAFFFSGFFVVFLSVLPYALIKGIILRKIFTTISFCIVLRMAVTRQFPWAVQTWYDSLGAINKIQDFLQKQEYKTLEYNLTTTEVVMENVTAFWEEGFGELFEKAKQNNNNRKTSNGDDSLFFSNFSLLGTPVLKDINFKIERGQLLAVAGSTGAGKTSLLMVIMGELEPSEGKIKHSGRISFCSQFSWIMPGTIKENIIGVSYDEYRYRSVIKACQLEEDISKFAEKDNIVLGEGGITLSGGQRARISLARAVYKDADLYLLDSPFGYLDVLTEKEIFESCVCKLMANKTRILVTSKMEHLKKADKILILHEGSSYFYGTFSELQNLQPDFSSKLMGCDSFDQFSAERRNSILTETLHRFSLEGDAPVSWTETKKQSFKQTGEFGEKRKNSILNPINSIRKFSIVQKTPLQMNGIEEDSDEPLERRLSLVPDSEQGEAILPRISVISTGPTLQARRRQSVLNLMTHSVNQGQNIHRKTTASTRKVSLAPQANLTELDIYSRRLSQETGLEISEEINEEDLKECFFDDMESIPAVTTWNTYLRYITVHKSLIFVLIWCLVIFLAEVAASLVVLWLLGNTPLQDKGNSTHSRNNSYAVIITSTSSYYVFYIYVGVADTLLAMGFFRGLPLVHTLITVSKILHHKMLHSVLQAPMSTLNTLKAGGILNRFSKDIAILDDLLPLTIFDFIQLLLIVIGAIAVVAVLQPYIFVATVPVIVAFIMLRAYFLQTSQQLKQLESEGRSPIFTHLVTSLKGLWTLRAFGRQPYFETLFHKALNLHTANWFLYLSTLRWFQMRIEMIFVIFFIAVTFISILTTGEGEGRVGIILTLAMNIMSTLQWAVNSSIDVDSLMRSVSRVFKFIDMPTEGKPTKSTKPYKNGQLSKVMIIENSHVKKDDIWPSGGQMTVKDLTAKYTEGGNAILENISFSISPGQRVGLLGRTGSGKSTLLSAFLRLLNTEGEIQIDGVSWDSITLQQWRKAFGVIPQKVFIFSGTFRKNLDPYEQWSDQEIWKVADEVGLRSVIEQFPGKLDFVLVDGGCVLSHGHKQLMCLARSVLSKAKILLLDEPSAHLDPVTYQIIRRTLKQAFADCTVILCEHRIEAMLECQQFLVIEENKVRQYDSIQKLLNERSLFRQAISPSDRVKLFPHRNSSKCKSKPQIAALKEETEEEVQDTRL

| EC30 | SMILES |
| --- | --- |
| +++ (“+++” means <3 uM) | COc1ccc(/C=C/c2cnc(N3CC(C)CC3(C)C)c(C(=O)NS(=O)(=O)c3cccc(N)n3)c2)cc1 (centres unmarked) [Compound 1726, N-[(6-amino-2-pyridyl)sulfonyl]-5-[(E)-2-(4-methoxyphenyl)vinyl]-2-(2,2,4-trimethylpyrrolidin-1-yl)pyridine-3-carboxamide] |
| +++ (“+++” means <3 uM) | CCOc1ncc(-c2ccc(C(=O)NS(=O)(=O)c3cccc(N)n3)c(N3C[C@@H](C)CC3(C)C)n2)cc1C [Compound 1727, N-[(6-amino-2-pyridyl)sulfonyl]-6-(6-ethoxy-5-methyl-3-pyridyl)-2-[(4S)-2,2,4-trimethylpyrrolidin-1-yl]pyridine-3-carboxamide] |
| +++ (“+++” means <3 uM) | CC[C@H](C)Oc1ncc(-c2ccc(C(=O)NS(=O)(=O)c3cccc(N)n3)c(N3C[C@@H](C)CC3(C)C)n2)cc1C [Compound 1728, N-[(6-amino-2-pyridyl)sulfonyl]-6-[5-methyl-6-[(1 S)-1-methylpropoxy]-3-pyridyl]-2-[(4S)-2,2,4-trimethylpyrrolidin-1-yl]pyridine-3-carboxamide] |
| +++ (“+++” means <3 uM) | CC(Oc1nc(N2C[C@@H](C)CC2(C)C)c(C(=O)NS(=O)(=O)c2cccc(N)n2)cc1F)C1CCCCC1 (stereo partly drawn) [Compound 1730, N-[(6-amino-2-pyridyl)sulfonyl]-6-(1-cyclohexylethoxy)-5-fluoro-2-[(4S)-2,2,4-trimethylpyrrolidin-1-yl]pyridine-3-carboxamide] |
| +++ (“+++” means <3 uM) | Cc1ccc(-c2ccc(C(=O)NS(=O)(=O)c3cccnc3N)c(N3C[C@@H](C)CC3(C)C)n2)c(O)c1 [Compound 1731, N-[(2-amino-3-pyridyl)sulfonyl]-6-(2-hydroxy-4-methyl-phenyl)-2-[(4S)-2,2,4-trimethylpyrrolidin-1-yl]pyridine-3-carboxamide] |
| ++ (“++” means between 3 uM and 10 uM) | CC1CN(c2ncccc2C(=O)NS(=O)(=O)c2cccc(N3CCN(C4CCCC4)CC3)n2)C(C)(C)C1 (centres unmarked) [Compound 1733, N—[[6-(4-cyclopentylpiperazin-1-yl)-2-pyridyl]sulfonyl]-2-(2,2,4-trimethylpyrrolidin-1-yl)pyridine-3-carboxamide] |
| +++ (“+++” means <3 uM) | CC1CN(c2ncccc2C(=O)NS(=O)(=O)c2cccc(OCC3CCNC3)n2)C(C)(C)C1 (centres unmarked) [Compound 1734, N—[[6-(pyrrolidin-3-ylmethoxy)-2-pyridyl]sulfonyl]-2-(2,2,4-trimethylpyrrolidin-1-yl)pyridine-3-carboxamide] |
| +++ (“+++” means <3 uM) | COc1ccccc1-c1cnc(N2CC(C)CC2(C)C)c(C(=O)NS(=O)(=O)c2cccc(N)n2)c1 (centres unmarked) [Compound 1735, N-[(6-amino-2-pyridyl)sulfonyl]-5-(2-methoxyphenyl)-2-(2,2,4-trimethylpyrrolidin-1-yl)pyridine-3-carboxamide] |
| ++ (“++” means between 3 uM and 10 uM) | Cc1ccc(C)c(-c2ccc(C(=O)NS(=O)(=O)N3CC[C@H](N)C3)c(N3C[C@@H](C)CC3(C)C)n2)c1 [Compound 1736, N-[(3S)-3-aminopyrrolidin-1-yl]sulfonyl-6-(2,5-dimethylphenyl)-2-[(4S)-2,2,4-trimethylpyrrolidin-1-yl]pyridine-3-carboxamide] |
| +++ (“+++” means <3 uM) | CC(C)COc1cc(F)cc(-c2ccc(C(=O)NS(=O)(=O)c3cccc(N)n3)c(N3C[C@H](C)CC34CCC4)n2)c1 [Compound 1737] |
| +++ (“+++” means <3 uM) | C[C@@H]1CN(c2nc(-c3cccc(CO)c3)ccc2C(=O)NS(=O)(=O)c2cccnc2N)C(C)(C)C1 [Compound 1738, N-[(2-amino-3-pyridyl)sulfonyl]-6-[3-(hydroxymethyl)phenyl]-2-[(4S)-2,2,4-trimethylpyrrolidin-1-yl]pyridine-3-carboxamide] |
